Experimental data: patent publication US10857139B2, “Substituted diazaspiroalkanes as androgen receptor modulators” (The Regents of the University of California, priority 2006, dated 2020)

Tests used:
Solubility in ethanol = format: physicochemical
From the text: (§1) When administered to mice, hardening of the skin and skin irritation around the injection site was observed, and this was attributed to the use of DMSO.

[1] = Stability of intravenous formulation (DMSO/PBS solution) at room temperature; format: physicochemical; settings: 10-25% DMSO, balance PBS
Method: A compound presently disclosed, for example, compound A51 or A52, can be in a formulation suitable for intravenous dosing. In an embodiment, the compound is dissolved in from about 10% to about 25% dimethylsulfoxide (DMSO). 1× phosphate buffered saline (PBS) is then mixed into the solution as the balance, and the solution is sonicated with a water bath sonicator until it is homogeneous.
At a compound concentration of 1.5 mg/mL, 5 minutes of sonication may be sufficient to dissolve the compound. At a compound concentration of 2 mg/ml, more than 5 minutes of sonication may be required to dissolve the compound and a polyethylene glcyol can be added to keep the compound in suspension. For example, 5 to 40% PEG-400 (a polyethylene glycol), such as, 5-10% PEG-400, can be added.

androgen receptor (AR) [2] = molecular target: T1, androgen receptor (AR) (Homo sapiens, UniProt P10275, T878A); experiment: Secreted PSA induced by R1881 in hormone sensitive (HS) LNCaP cells (PSA ELISA); format: cell-based; settings: FIG. 1, R1881, 5 days incubation
T1 construct: endogenous in cells; host or cells: LNCaP cells
T1 sequence (P10275 1-920 T878A): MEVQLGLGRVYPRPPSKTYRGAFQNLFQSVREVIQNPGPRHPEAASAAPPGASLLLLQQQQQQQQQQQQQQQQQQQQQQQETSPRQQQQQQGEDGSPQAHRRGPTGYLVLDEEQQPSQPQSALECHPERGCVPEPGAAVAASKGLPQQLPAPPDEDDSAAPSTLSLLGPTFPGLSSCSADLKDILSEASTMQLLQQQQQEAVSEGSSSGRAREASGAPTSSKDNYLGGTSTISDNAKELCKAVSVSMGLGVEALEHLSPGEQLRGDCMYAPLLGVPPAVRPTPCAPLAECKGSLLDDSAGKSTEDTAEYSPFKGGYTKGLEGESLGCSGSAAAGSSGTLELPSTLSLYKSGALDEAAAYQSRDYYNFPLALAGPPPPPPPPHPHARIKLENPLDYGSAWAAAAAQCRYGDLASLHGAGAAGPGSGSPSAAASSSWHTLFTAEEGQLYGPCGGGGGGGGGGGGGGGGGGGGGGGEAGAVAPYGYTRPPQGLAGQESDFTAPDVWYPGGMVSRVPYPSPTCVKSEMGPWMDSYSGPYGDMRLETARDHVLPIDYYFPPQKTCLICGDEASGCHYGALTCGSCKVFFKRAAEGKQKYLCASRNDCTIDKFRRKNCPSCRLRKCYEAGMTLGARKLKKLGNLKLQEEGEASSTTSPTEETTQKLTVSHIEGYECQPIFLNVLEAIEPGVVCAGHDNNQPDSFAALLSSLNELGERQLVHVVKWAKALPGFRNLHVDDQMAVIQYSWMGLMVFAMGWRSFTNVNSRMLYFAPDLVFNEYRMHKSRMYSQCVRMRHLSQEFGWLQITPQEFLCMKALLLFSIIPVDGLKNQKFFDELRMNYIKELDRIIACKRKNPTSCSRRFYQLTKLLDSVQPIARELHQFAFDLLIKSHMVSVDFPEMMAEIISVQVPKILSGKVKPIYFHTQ
Method: (§2) The biological activity of the compound of formula II was measured by secreted levels of prostate specific antigen (PSA). […] LNCaP cells (or LNCaP/AR cells) were maintained in Iscove's medium containing 10% FBS. Five days prior to drug treatment, the cells were grown in Iscove's medium containing 10% CS-FBS to deprive of androgens.

[3] = Suspension stability of oral formulation (DMSO/CMC/Tween 80/water); format: physicochemical; settings: oral formulation: DMSO, CMC, Tween 80, water; about 1.5 mg/mL
Method: In an embodiment, the compound is dissolved in 100% DMSO.
Additional chemicals can be added, such as a carboxymethylcellulose, a polysorbate, or water. […] The solution is mechanically homogenized for at least 30 seconds.
That is, more than 10% DMSO was not required.

LNCaP-AR tumors = experiment: LNCaP-AR xenograft tumor growth in SCID mice; format: in vivo; settings: for effect on tumors in an in vivo assay: administered as described (iv or oral formulation); for effect on tumor: daily dose of 1 mg/kg; for effect on tumor / tumor cytotoxicity / tumor growth: SCID mice; for tumor cytotoxicity: daily dose of 25-50 mg/kg; for tumor growth: daily oral dose of 10 mg/kg
Method: All animal experiments were performed in compliance with the guidelines of the Animal Research Committee of the University of California at Los Angeles. Animals were bought from Taconic and maintained in a laminar flow tower in a defined flora colony. LNCaP-AR and LNCaP-vector cells were maintained in RPMI medium supplemented with 10% FBS. 10^6 cells in 100 μl of 1:1 Matrigel to RPMI medium were injected subcutaneously into the flanks of intact or castrated male SCID mice. Tumor size was measured weekly in three dimensions (length×width×depth) using calipers. Mice were randomized to treatment groups when tumor size reached approximately 100 mm^3. Drugs were given orally everyday at the dose of 10 mg/kg.
Other doses were also tried.
Prostate cancer cell lines were used for xenografts. For example, a LNCaP xenograft, LAPC4 xenograft, LAPC9 xenograft, and xenografts of the hormone refractory counterparts of these cell lines were made. Other cell lines included V-cap, CWR22 and LAPC4 cell lines. Two cell lines that over express the androgen receptor were generated, LNCaP AR and LAPC4 AR. […] Under androgen ablation, the LNCaP AR and LAPC4 AR lines continued to grow, thus behaving like hormone refractory cells.
CB17 SCID mice were used in the study.
Injections were made subcutaneously on the right flank of the mouse. […] In addition, because of the usage of Matrigel, injection of no more than 200 μl was found appropriate. Injection of 100-200 μl was found appropriate. Injecting too large a volume created leakage upon needle withdrawal.

LNCaP cells = experiment: MTS assay, growth inhibition of HS cancer cells; format: cell-based; settings: FIG. 2
Method: The biological activity of the compound of formula II was measured by secreted levels of prostate specific antigen (PSA). It is well established that PSA levels are indicators of AR activities in prostate cancer. […] After 5 days of incubation, secreted PSA levels were assayed using PSA ELISA kits (American Qualex, San Clemente, Calif.) (See FIG. 1 and FIG. 3). The MTS assay was also used to examine the growth inhibition of the compounds of formula II (See FIG. 2).

androgen receptor (AR) [4] = experiment: Secreted PSA induced by R1881 in hormone refractory (HR) LNCaP/AR cells (PSA ELISA); format: cell-based; settings: FIG. 3, R1881, 5 days incubation
Method: as §2

[5] = Stability of the compounds in vivo with ethanol as solvent; settings: mice
From the text: as §1

Row | SMILES | solubility in ethanol (Solubility in ethanol) | stability of solution [1] | antagonist effect on HS cancer cells (secreted PSA) (androgen receptor (AR) [2]) | time the compound stays in suspension [3] | effect on tumors in an in vivo assay (LNCaP-AR tumors) | effect on tumor (LNCaP-AR tumors) | tumor cytotoxicity (LNCaP-AR tumors) | tumor growth (LNCaP-AR tumors) | antagonist effect on HS cancer cells (MTS growth inhibition) (LNCaP cells) | antagonist effect on HR cancer cells (secreted PSA) (androgen receptor (AR) [4]) | effect of ethanol on stability of the compounds in vivo [5] | Luciferase activity (LNCaP-AR tumors; FIG. 6, after 17 days of treatment)
1 | Cc1ccc(N2C(=S)N(c3cnc(C#N)c(C(F)(F)F)c3)C(=O)C23CCC3)cc1 [A51, 5-(8-oxo-6-thioxo-5-(4-methylphenyl)-5,7-diazaspiro[3.4]oct-7yl)-3-trifluoromethylpyridine-2-carbonitrile] | soluble in ethanol | stable at room temperature for at least a week | antagonist effect | only a couple of hours | beneficial effect on tumors | mild effect | some tumor cytotoxicity | completely retard tumor growth | antagonist effect | antagonist effect | reduce the stability | 
2 | CNC(=O)c1ccc(N2C(=S)N(c3cnc(C#N)c(C(F)(F)F)c3)C(=O)C23CCC3)cc1F [A52, 4-[7-(6-cyano-5-trifluoromethylpyridin-3-yl)-8-oxo-6-thioxo-5,7-diazaspiro[3,4]oct-5-yl]-2-fluoro-N-methylbenzamide] | soluble in ethanol | stable at room temperature for at least a week |  | only a couple of hours | beneficial effect on tumors | mild effect | some tumor cytotoxicity | completely retard tumor growth | antagonist effect |  | reduce the stability | disappearance of Luciferase activity
